System: HaCaT cells
Assay: Concentrations of inflammatory mediators produced by HaCaT cells stimulated with TNFα and IFNγ in presence/absence of JAK inhibitors (ProCarta)
Assay type: cell-based, human
Procedure: After 48 hours, cell culture media was removed from 24 well plates and replaced with 250 uL of media containing serial diluted drug, then incubated for 15 minutes at 37° C./5% CO2. […] The final concentration of Recombinant Human Interferon gamma and Recombinant Human Tumor Necrosis Factor alpha was 25 ng/mL of each cytokine. Cytokine stimulation added to wells containing drug brought the final concentrations for each drug treatment to 25 nM, 50 nM, 100 nM, and 200 nM. Treated plates were mixed by gentle agitation for 30 seconds then incubated for 24 hours at 37° C./5% CO2. At the end of the 24 hour incubation media was immediately removed from each plate.
Media was incubated with antibody conjugated beads designed to bind to the epitopes of specific target proteins and identify the bound protein through the bead's distinctive spectral pattern. Biotinylated detection antibodies, designed to bind to different epitopes of the same target proteins, and Streptavidin-PE are added to assay plates to quantify the amount of the target proteins. Assay plates were read on the Luminex 200 and data were expressed as Net Median Fluorescence Intensity. […] The concentration of each protein was extrapolated from the antigen standard curve and concentrations were expressed as pg/mL (Table 15).

[1] = TNFα+IFNγ 25 ng/mL each, drug conc. 1st of 4 rows (cell not shown; prob. 25 nM)
[2] = TNFα+IFNγ 25 ng/mL each, drug conc. 2nd of 4 rows (cell not shown; prob. 50 nM)
[3] = TNFα+IFNγ 25 ng/mL each, drug conc. 3rd of 4 rows (cell not shown; prob. 100 nM)
[4] = TNFα+IFNγ 25 ng/mL each, drug conc. 4th of 4 rows (cell not shown; prob. 200 nM)
[5] = drug present, concentration not given

Cc1n[nH]c(C)c1-c1cnn(C2(CC#N)CN(c3cc(F)c(C(=O)N[C@@H](C)C(F)(F)F)cc3F)C2)c1 [Cpd C, 4-[3-(Cyanomethyl)-3-(3′,5′-dimethyl-1H,1′H-4,4′-bipyrazol-1-yl)azetidin-1-yl]-2,5-difluoro-N-[(1S)-2,2,2-trifluoro-1-methylethyl]benzamide]
IFN gamma concentration [1]: 27765.18 ± 4653.71 pg/mL
IL1RA concentration [1]: 6175.66 ± 277.7 pg/mL
IL1 alpha concentration [1]: 7.74 ± 0.36 pg/mL
IL1 beta concentration [1]: 8.88 ± 0.35 pg/mL
IL2 concentration [1]: 31.39 ± 1.44 pg/mL
IL4 concentration [1]: 8.31 ± 2.19 pg/mL
IL5 concentration [1]: 27.03 ± 1.35 pg/mL
IL6 concentration [1]: 774.87 ± 31.09 pg/mL
IL7 concentration [1]: 2.18 ± 0.15 pg/mL
IL8 concentration [1]: 2879.27 ± 117.07 pg/mL
IL9 concentration [1]: 3.37 ± 0.33 pg/mL
IL10 concentration [1]: 0.75 ± 0.05 pg/mL
IL12p70 concentration [1]: 1.97 ± 0.22 pg/mL
IL13 concentration [1]: 2.93 ± 0.41 pg/mL
IL15 concentration [1]: 3.97 ± 0.71 pg/mL
IL17A concentration [1]: 4.27 ± 0.42 pg/mL
IL18 concentration [1]: 163.63 ± 3.29 pg/mL
IL21 concentration [1]: 2.71 ± 0.18 pg/mL
IL22 concentration [1]: 7.15 ± 1.16 pg/mL
IL23 concentration [1]: 7.43 ± 0 pg/mL
IL27 concentration [1]: 8.88 ± 1.64 pg/mL
IL31 concentration [1]: 3.52 ± 0.53 pg/mL
IP-10/CXCL10 concentration [1]: 3999.9 ± 370.53 pg/mL
LIF concentration [1]: 67.72 ± 2.04 pg/mL
MCP1 concentration [1]: 15200 ± 0 pg/mL
MIP1 alpha concentration [1]: 101.71 ± 3.84 pg/mL
MIP1 beta concentration [1]: 318.92 ± 6.03 pg/mL
PDGF-BB concentration [1]: 4.93 ± 0.21 pg/mL
PIGF-1 concentration [1]: 58.04 ± 2.17 pg/mL
RANTES concentration [1]: 216.88 ± 13.45 pg/mL
SCF concentration [1]: 4.34 ± 0.19 pg/mL
SDF-1 alpha concentration [1]: 3503.89 ± 90.15 pg/mL
TNF alpha concentration [1]: 11212.78 ± 1168.53 pg/mL
TNF beta concentration [1]: 5.68 ± 1.4 pg/mL
VEGF-A concentration [1]: 1261.47 ± 37.95 pg/mL
VEGF-D concentration [1]: 8.6 ± 0.74 pg/mL
IFN gamma concentration [2]: 23531.94 ± 2644.35 pg/mL
IL1RA concentration [2]: 6065 ± 325.72 pg/mL
IL1 alpha concentration [2]: 7.01 ± 0.39 pg/mL
IL1 beta concentration [2]: 8.72 ± 0.47 pg/mL
IL2 concentration [2]: 29.87 ± 1.38 pg/mL
IL4 concentration [2]: 5.24 ± 0.99 pg/mL
IL5 concentration [2]: 26.49 ± 1.58 pg/mL
IL6 concentration [2]: 710.89 ± 36.7 pg/mL
IL7 concentration [2]: 2.02 ± 0.07 pg/mL
IL8 concentration [2]: 2869.74 ± 167.65 pg/mL
IL9 concentration [2]: 3.7 ± 0^ pg/mL
IL10 concentration [2]: 0.74 ± 0.06 pg/mL
IL12p70 concentration [2]: 1.72 ± 0.2 pg/mL
IL13 concentration [2]: 2.24 ± 0.28 pg/mL
IL15 concentration [2]: 2.29 ± 0.44 pg/mL
IL17A concentration [2]: 3.48 ± 0.39 pg/mL
IL18 concentration [2]: 156.41 ± 4.19 pg/mL
IL21 concentration [2]: 2.88 ± 0 pg/mL
IL22 concentration [2]: 8.03 ± 0.87 pg/mL
IL23 concentration [2]: 7.43 ± 0 pg/mL
IL27 concentration [2]: 5.98 ± 1.08 pg/mL
IL31 concentration [2]: 3.36 ± 0.27 pg/mL
IP-10/CXCL10 concentration [2]: 3665.2 ± 277.11 pg/mL
LIF concentration [2]: 67.64 ± 3.17 pg/mL
MCP1 concentration [2]: 33175.72 ± 17975.72 pg/mL
MIP1 alpha concentration [2]: 104.54 ± 6.56 pg/mL
MIP1 beta concentration [2]: 318.37 ± 9.88 pg/mL
PDGF-BB concentration [2]: 5.22 ± 0.25 pg/mL
PIGF-1 concentration [2]: 55.59 ± 2.74 pg/mL
RANTES concentration [2]: 201.93 ± 15.44 pg/mL
SCF concentration [2]: 4.25 ± 0.22 pg/mL
SDF-1 alpha concentration [2]: 3471.01 ± 141.19 pg/mL
TNF alpha concentration [2]: 10367.04 ± 1016.28 pg/mL
TNF beta concentration [2]: 5.54 ± 0.56 pg/mL
VEGF-A concentration [2]: 1268.91 ± 59.05 pg/mL
VEGF-D concentration [2]: 8.44 ± 0.66 pg/mL
IFN gamma concentration [3]: 23113.79 ± 2086.62 pg/mL
IL1RA concentration [3]: 6167.55 ± 367.54 pg/mL
IL1 alpha concentration [3]: 7.27 ± 0.47 pg/mL
IL1 beta concentration [3]: 8.55 ± 0.34 pg/mL
IL2 concentration [3]: 30.51 ± 1.23 pg/mL
IL4 concentration [3]: 6.26 ± 1.35 pg/mL
IL5 concentration [3]: 28.64 ± 1.4 pg/mL
IL6 concentration [3]: 690.4 ± 35.25 pg/mL
IL7 concentration [3]: 2.04 ± 0.11 pg/mL
IL8 concentration [3]: 3035.52 ± 206.85 pg/mL
IL9 concentration [3]: 4.16 ± 0.46 pg/mL
IL10 concentration [3]: 0.75 ± 0.07 pg/mL
IL12p70 concentration [3]: 1.75 ± 0.23 pg/mL
IL13 concentration [3]: 2.58 ± 0.36 pg/mL
IL15 concentration [3]: 2.42 ± 0.54 pg/mL
IL17A concentration [3]: 3.77 ± 0.42 pg/mL
IL18 concentration [3]: 162.12 ± 5.14 pg/mL
IL21 concentration [3]: 2.6 ± 0.28 pg/mL
IL22 concentration [3]: 7.31 ± 1.07 pg/mL
IL23 concentration [3]: 6.7 ± 0.73 pg/mL
IL27 concentration [3]: 5.7 ± 1.04 pg/mL
IL31 concentration [3]: 2.95 ± 0.38 pg/mL
IP-10/CXCL10 concentration [3]: 3860.41 ± 323.05 pg/mL
LIF concentration [3]: 73.12 ± 3.62 pg/mL
MCP1 concentration [3]: 26334.64 ± 11134.64 pg/mL
MIP1 alpha concentration [3]: 96.4 ± 4.18 pg/mL
MIP1 beta concentration [3]: 324.42 ± 8.52 pg/mL
PDGF-BB concentration [3]: 5.57 ± 0.23 pg/mL
PIGF-1 concentration [3]: 58.69 ± 3.37 pg/mL
RANTES concentration [3]: 207.79 ± 17.38 pg/mL
SCF concentration [3]: 4.59 ± 0.25 pg/mL
SDF-1 alpha concentration [3]: 3521.98 ± 154.06 pg/mL
TNF alpha concentration [3]: 10632.61 ± 795.65 pg/mL
TNF beta concentration [3]: 4.6 ± 0.46 pg/mL
VEGF-A concentration [3]: 1335.99 ± 63.65 pg/mL
VEGF-D concentration [3]: 9.25 ± 0.7 pg/mL
IFN gamma concentration [4]: 25179.01 ± 3591.71 pg/mL
IL1RA concentration [4]: 5756.59 ± 328.24 pg/mL
IL1 alpha concentration [4]: 6.45 ± 0.38 pg/mL
IL1 beta concentration [4]: 8.71 ± 0.5 pg/mL
IL2 concentration [4]: 30.68 ± 1.62 pg/mL
IL4 concentration [4]: 7.07 ± 0.88 pg/mL
IL5 concentration [4]: 27.1 ± 1.76 pg/mL
IL7 concentration [4]: 1.91 ± 0.11 pg/mL
IL8 concentration [4]: 2874.26 ± 169.59 pg/mL
IL9 concentration [4]: 3.66 ± 0.04 pg/mL
IL10 concentration [4]: 0.84 ± 0.08 pg/mL
IL12p70 concentration [4]: 1.79 ± 0.23 pg/mL
IL13 concentration [4]: 2.12 ± 0.3 pg/mL
IL15 concentration [4]: 2.32 ± 0.44 pg/mL
IL17A concentration [4]: 4 ± 0.34 pg/mL
IL18 concentration [4]: 157.36 ± 4.56 pg/mL
IL21 concentration [4]: 2.45 ± 0.29 pg/mL
IL22 concentration [4]: 8.24 ± 0.53 pg/mL
IL23 concentration [4]: 6.95 ± 0.48 pg/mL
IL27 concentration [4]: 6.59 ± 0.99 pg/mL
IL31 concentration [4]: 3.34 ± 0.69 pg/mL
IP-10/CXCL10 concentration [4]: 3835.78 ± 304.58 pg/mL
LIF concentration [4]: 70.66 ± 3.22 pg/mL
MCP1 concentration [4]: 19811.45 ± 4611.45 pg/mL
MIP1 alpha concentration [4]: 98.72 ± 3.87 pg/mL
MIP1 beta concentration [4]: 318.74 ± 8.72 pg/mL
PDGF-BB concentration [4]: 5.52 ± 0.27 pg/mL
PIGF-1 concentration [4]: 55.71 ± 3.28 pg/mL
RANTES concentration [4]: 189.62 ± 13.78 pg/mL
SCF concentration [4]: 4.23 ± 0.15 pg/mL
SDF-1 alpha concentration [4]: 3436.48 ± 134.91 pg/mL
TNF alpha concentration [4]: 10619.05 ± 1276.72 pg/mL
TNF beta concentration [4]: 3.78 ± 0.57 pg/mL
VEGF-A concentration [4]: 1262.36 ± 57.42 pg/mL
VEGF-D concentration [4]: 8.82 ± 0.7 pg/mL
IL1RA concentration [5]: 488.84 ± 49.85 pg/mL
IL1 alpha concentration [5]: 0.3 ± 0.05 pg/mL
IL1 beta concentration [5]: 0.93 ± 0.17 pg/mL
IL2 concentration [5]: 2.65 ± 0.28 pg/mL
IL4 concentration [5]: 4.89 ± 1.18 pg/mL
IL5 concentration [5]: 3.04 ± 0.41 pg/mL
IL6 concentration [5]: 28.49 ± 2.89 pg/mL
IL7 concentration [5]: 3.35 ± 0.18 pg/mL
IL8 concentration [5]: 269.53 ± 10.35 pg/mL
IL9 concentration [5]: 3.65 ± 0.2 pg/mL
IL10 concentration [5]: 0.4 ± 0.11 pg/mL
IL12p70 concentration [5]: 1.52 ± 0.29 pg/mL
IL13 concentration [5]: 1.08 ± 0.13 pg/mL
IL15 concentration [5]: 1.98 ± 0.49 pg/mL
IL17A concentration [5]: 1.39 ± 0.22 pg/mL
IL18 concentration [5]: 5.89 ± 0.58 pg/mL
IL21 concentration [5]: 2.33 ± 0.29 pg/mL
IL22 concentration [5]: 7.16 ± 1.16 pg/mL
IL23 concentration [5]: 6.54 ± 1 pg/mL
IL27 concentration [5]: 9.17 ± 2.36 pg/mL
IL31 concentration [5]: 3.28 ± 0.31 pg/mL
IP-10/CXCL10 concentration [5]: 19.83 ± 0.4 pg/mL
LIF concentration [5]: 24.24 ± 1.14 pg/mL
MCP1 concentration [5]: 1158.23 ± 47.13 pg/mL
MIP1 alpha concentration [5]: 2.9 ± 0.21 pg/mL
MIP1 beta concentration [5]: 117.97 ± 3.75 pg/mL
PDGF-BB concentration [5]: 2.19 ± 0.17 pg/mL
PIGF-1 concentration [5]: 21.19 ± 1.05 pg/mL
RANTES concentration [5]: 8.61 ± 0.52 pg/mL
SCF concentration [5]: 2 ± 0.1 pg/mL
SDF-1 alpha concentration [5]: 1028.82 ± 43.21 pg/mL
TNF alpha concentration [5]: 2.82 ± 0.72 pg/mL
TNF beta concentration [5]: 4.5 ± 0.5 pg/mL
VEGF-A concentration [5]: 609.51 ± 15.83 pg/mL
VEGF-D concentration [5]: 3.63 ± 0.6 pg/mL

Source: patent US12498382B2, “Biomarkers for vitiligo” (INCYTE CORPORATION, priority 2019, dated 2025)
